Test results published in ChEMBL document CHEMBL4673242, “Penithoketone and Penithochromones A-L, Polyketides from the Deep-Sea-Derived Fungus Penicillium thomii YPGA3” (J Nat Prod, 2020).

Experiments:
[1] = system: RAW264.7; assay: Inhibition of LPS-induced NO production in mouse RAW264.7 cells at 50 uM relative to control; type: functional
[2] = system: LNCaP C4-2B; assay: Cytotoxicity against human enzalutamide-resistant LNCaP C4-2B cells assessed as reduction in cell viability at 50 uM after 72 hrs by MTT assay relative to control; type: functional
[3] = system: MCF7; assay: Cytotoxicity against human MCF7 cells assessed as reduction in cell viability at 50 uM after 72 hrs by MTT assay relative to control; type: functional
[4] = system: MDA-MB-468; assay: Cytotoxicity against human MDA-MB-468 cells assessed as reduction in cell viability at 50 uM after 72 hrs by MTT assay relative to control; type: functional
[5] = system: LNCaP C4-2B; assay: Cytotoxicity against human LNCaP C4-2B cells assessed as reduction in cell viability at 50 uM after 72 hrs by MTT assay relative to control; type: functional
[6] = system: LNCaP C4-2B; assay: Cytotoxicity against human enzalutamide-resistant LNCaP C4-2B cells assessed as reduction in cell viability after 72 hrs by MTT assay; type: functional, cell-based
[7] = system: LNCaP C4-2B; assay: Cytotoxicity against human LNCaP C4-2B cells assessed as reduction in cell viability after 72 hrs by MTT assay; type: functional, cell-based
[8] = system: MDA-MB-468; assay: Cytotoxicity against human MDA-MB-468 cells assessed as reduction in cell viability after 72 hrs by MTT assay; type: functional, cell-based; conditions: MDA-MB-468, 72 h
[9] = system: MCF7; assay: Cytotoxicity against human MCF7 cells assessed as reduction in cell viability after 72 hrs by MTT assay; type: functional, cell-based; conditions: MCF7, 72 h

`COc1cc(OC)c2c(=O)cc(CCCCC(=O)O)oc2c1` gave an inhibition at 50 µM [1] of under 30%, an Activity [2] of under 30% and an Activity [3] of under 30%. For the same compound, the Activity [4] was under 30% and the Activity [5] was under 30%.
With `COC(=O)CCCCCCc1cc(=O)c2c(OC)cc(O)cc2o1` the inhibition at 50 µM [1] was under 30%, the Activity [2] was under 30% and the Activity [3] was under 30%. It also gave an Activity [4] of under 30% and an Activity [5] of under 30%.
With `COC(=O)CCc1cc(=O)c2c(OC)cc(OC)cc2o1` the inhibition at 50 µM [1] was under 30%, the Activity [2] was under 30% and the Activity [3] was under 30%. It also gave an Activity [4] of under 30% and an Activity [5] of under 30%.
`COC(=O)CCCCCCc1cc(=O)c2c(O)cc(OC)cc2o1` showed an inhibition at 50 µM [1] of under 30%, an Activity [2] of under 30% and an Activity [3] of under 30%. For the same compound, the Activity [4] was under 30% and the Activity [5] was under 30%.
Work on `COC1=C(O)C(=O)c2c(O)cccc2C1=O` yielded an inhibition at 50 µM [1] of under 30%, an IC50 [6] of over 50 µM and an IC50 [7] of 41 µM. The IC50 [8] was 38 µM, the IC50 [9] was over 50 µM and the Activity [2] was over 50%. It also gave an Activity [3] of over 50%, an Activity [4] of over 50% and an Activity [5] of over 50%.
`COc1cc(OC)c2c(=O)cc(CCCC/C=C/C(=O)O)oc2c1` showed an inhibition at 50 µM [1] of under 30%, an Activity [2] of under 30% and an Activity [3] of under 30%. It also gave an Activity [4] of under 30% and an Activity [5] of under 30%.
For `COC(=O)CCCCCCc1cc(=O)c2c(OC)cc(OC)cc2o1`, the inhibition at 50 µM [1] was under 30%, the Activity [2] was under 30% and the Activity [3] was under 30%. The Activity [4] was under 30% and the Activity [5] was under 30%.
`COc1cc(O)c2c(=O)cc(CCCCCCC(=O)O)oc2c1` was tested, and the inhibition at 50 µM [1] was under 30%, the Activity [2] was under 30% and the Activity [3] was under 30%. The Activity [4] was under 30% and the Activity [5] was under 30%.
`COC(=O)CCCCCCc1cc(=O)c2c(O)cc(O)cc2o1` gave an inhibition at 50 µM [1] of under 30%, an Activity [2] of under 30% and an Activity [3] of under 30%. The Activity [4] was under 30% and the Activity [5] was under 30%.
`COc1cc(OC)c2c(=O)cc(CCCCCCC(=O)O)oc2c1` was tested, and the inhibition at 50 µM [1] was under 30%, the Activity [2] was under 30% and the Activity [3] was under 30%. The Activity [4] was under 30% and the Activity [5] was under 30%.
With `COC1=C(O)C(=O)c2c(O)cccc2[C@@]1(OC)[C@@H](C)C1=CC(=O)OC1` the inhibition at 50 µM [1] was under 30%, the IC50 [6] was 14 µM and the IC50 [7] was 9.1 µM. For the same compound, the IC50 [8] was 15 µM, the IC50 [9] was 21 µM and the Activity [2] was over 50%. For the same compound, the Activity [3] was over 50%, the Activity [4] was over 50% and the Activity [5] was over 50%.
Compound `O=C(O)CCCCCCc1cc(=O)c2c(O)cc(O)cc2o1` has an inhibition at 50 µM [1] of under 30%, an Activity [2] of under 30% and an Activity [3] of under 30%. The Activity [4] was under 30% and the Activity [5] was under 30%.
`COC(=O)CCCCc1cc(=O)c2c(OC)cc(OC)cc2o1` was tested, and the inhibition at 50 µM [1] was under 30%, the Activity [2] was under 30% and the Activity [3] was under 30%. It also gave an Activity [4] of under 30% and an Activity [5] of under 30%.
`COC(=O)CCCc1cc(=O)c2c(OC)cc(O)cc2o1` showed an inhibition at 50 µM [1] of under 30%, an Activity [2] of under 30% and an Activity [3] of under 30%. It also gave an Activity [4] of under 30% and an Activity [5] of under 30%.
`COC1=CC(=O)c2c(O)cccc2C1=O` was tested, and the inhibition at 50 µM [1] was under 30%, the IC50 [6] was 13 µM and the IC50 [7] was 6.4 µM. It also gave an IC50 [8] of 4.9 µM, an IC50 [9] of 11 µM and an Activity [2] of over 50%. It also gave an Activity [3] of over 50%, an Activity [4] of over 50% and an Activity [5] of over 50%.
